Test results published in patent US20250346569A1, “NEW DERIVATIVES FOR TREATING TRPM3 MEDIATED DISORDERS” (Katholieke Universiteit Leuven, priority 2022, published 2025).
pIC50: −log10 of the molar value.

Target: T1, mouse TRPM3α2 (mTRPM3) ion channel (Mus musculus, UniProt J9SQF3)
T1 construct: expressed in transfected cells; host or cells: flip-in HEK293
Experiment: Monitoring the TRPM3 ion channel driven Ca2+ uptake (Fluo-4 AM assay)
Format: cell-based
Settings: TRPM3 overexpressing flip-in HEK293 cells, channel stimulated with Pregnenolone sulfate (PS) 50 μM
Procedure, shortened: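 Flp-In HEK293 cells overexpressing mTRPM3α2, loaded with Fluo-4 AM and added to wells holding compound plus 50 μM pregnenolone sulfate in Ca2+-containing Krebs buffer. Fluorescence (ex 485/em 535) read right after cell addition. Inhibition normalised to vehicle and positive-control inhibitor; IC50 derived.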

T1 sequence (J9SQF3 1-1709 isoform J9SQF3-12): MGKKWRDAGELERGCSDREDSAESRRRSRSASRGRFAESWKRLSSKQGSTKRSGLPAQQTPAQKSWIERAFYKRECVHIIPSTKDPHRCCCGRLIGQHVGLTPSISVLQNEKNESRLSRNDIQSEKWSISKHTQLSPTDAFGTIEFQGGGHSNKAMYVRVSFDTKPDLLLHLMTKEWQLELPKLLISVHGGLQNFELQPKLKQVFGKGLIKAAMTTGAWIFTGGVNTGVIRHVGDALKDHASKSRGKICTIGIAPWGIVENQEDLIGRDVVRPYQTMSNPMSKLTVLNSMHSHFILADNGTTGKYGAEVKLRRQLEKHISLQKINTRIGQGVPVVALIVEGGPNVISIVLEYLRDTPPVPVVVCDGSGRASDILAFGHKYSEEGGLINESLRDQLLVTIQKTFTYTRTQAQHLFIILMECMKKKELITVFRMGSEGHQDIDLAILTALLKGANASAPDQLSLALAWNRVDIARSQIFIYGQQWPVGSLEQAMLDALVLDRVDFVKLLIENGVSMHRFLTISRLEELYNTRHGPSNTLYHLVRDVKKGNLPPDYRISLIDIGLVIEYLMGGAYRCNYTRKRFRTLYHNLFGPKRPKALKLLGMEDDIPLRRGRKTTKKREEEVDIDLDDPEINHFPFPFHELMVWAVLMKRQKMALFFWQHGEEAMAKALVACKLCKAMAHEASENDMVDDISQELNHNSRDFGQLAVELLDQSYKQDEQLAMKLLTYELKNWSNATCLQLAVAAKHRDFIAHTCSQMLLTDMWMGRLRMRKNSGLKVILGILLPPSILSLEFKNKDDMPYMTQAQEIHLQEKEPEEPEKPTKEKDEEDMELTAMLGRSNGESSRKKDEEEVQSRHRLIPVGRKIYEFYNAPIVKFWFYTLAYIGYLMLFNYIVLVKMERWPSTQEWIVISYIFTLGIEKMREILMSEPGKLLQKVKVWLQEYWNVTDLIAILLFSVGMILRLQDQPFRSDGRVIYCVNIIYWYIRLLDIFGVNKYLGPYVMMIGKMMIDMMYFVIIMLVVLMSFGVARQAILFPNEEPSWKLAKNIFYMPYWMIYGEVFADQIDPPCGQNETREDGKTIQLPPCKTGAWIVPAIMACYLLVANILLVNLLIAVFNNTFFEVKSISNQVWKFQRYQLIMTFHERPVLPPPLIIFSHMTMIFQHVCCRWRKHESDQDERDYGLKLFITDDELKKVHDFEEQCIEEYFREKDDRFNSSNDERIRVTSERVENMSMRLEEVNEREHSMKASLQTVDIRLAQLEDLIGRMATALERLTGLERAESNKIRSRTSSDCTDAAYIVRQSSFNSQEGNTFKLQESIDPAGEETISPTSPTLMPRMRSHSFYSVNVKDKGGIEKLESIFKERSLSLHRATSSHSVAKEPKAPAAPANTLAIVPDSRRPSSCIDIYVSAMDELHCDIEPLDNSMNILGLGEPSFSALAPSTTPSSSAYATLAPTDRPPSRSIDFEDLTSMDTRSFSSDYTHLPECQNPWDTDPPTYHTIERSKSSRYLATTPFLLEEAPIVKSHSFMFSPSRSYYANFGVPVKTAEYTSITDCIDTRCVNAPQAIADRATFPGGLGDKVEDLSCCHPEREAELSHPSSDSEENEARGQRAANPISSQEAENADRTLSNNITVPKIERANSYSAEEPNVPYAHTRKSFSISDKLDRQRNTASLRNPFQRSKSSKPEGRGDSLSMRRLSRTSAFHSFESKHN

| Compound | pIC50 |
| --- | --- |
| Cc1sc2ccc(OCc3cccnc3O)cc2c1C(=O)NC1(C(=O)O)CCOCC1 [Cpd 072, 4-{5-[(2-hydroxypyridin-3-yl)methoxy]-2-methyl-1-benzothiophene-3-amido}oxane-4-carboxylic acid] | < 4.70 |
| Cc1sc2ccc(OCc3ccccc3)cc2c1C(=O)NCc1cccc(O)n1 [Cpd 104, 5-(benzyloxy)-N-[(6-hydroxypyridin-2-yl)methyl]-2-methyl-1-benzothiophene-3-carboxamide] | < 4.70 |
| Cc1sc2ccc(OCC3COC3)cc2c1C(=O)NC(C)(CO)C(N)=O (single isomer, unassigned) [Cpd 068 - En2, 3-hydroxy-2-methyl-2-({2-methyl-5-[(oxetan-3-yl)methoxy]-1-benzothiophen-3-yl}formamido)propanamide] | 4.70 to 6.00 |
| Cc1sc2ccc(OCc3ccccc3F)cc2c1C(=O)NC1CCNCC1(F)F (single isomer, unassigned) [Cpd 095 - En1, N-(3,3-difluoropiperidin-4-yl)-5-[(2-fluorophenyl)methoxy]-2-methyl-1-benzothiophene-3-carboxamide] | 4.70 to 6.00 |
| Cc1sc2ccc(OCc3ccccc3F)cc2c1C(=O)N[C@@H]1CCN(CCO)C1=O [Cpd 055, 5-[(2-fluorophenyl)methoxy]-N-[(3R)-1-(2-hydroxyethyl)-2-oxopyrrolidin-3-yl]-2-methyl-1-benzothiophene-3-carboxamide] | 4.70 to 6.00 |
| O=C(NC1CC(F)(F)C1)c1c(C(F)F)sc2ccc(OCc3ccccc3)cc12 [Cpd 145, 5-(benzyloxy)-N-(3,3-difluorocyclobutyl)-2-(difluoromethyl)-1-benzothiophene-3-carboxamide] | < 4.70 |
| Cc1ncc(COc2ccc3sc(C)c(C(=O)NC4(CO)CC4)c3c2)s1 [Cpd 022, N-[1-(hydroxymethyl)cyclopropyl]-2-methyl-5-[(2-methyl-1,3-thiazol-5-yl)methoxy]-1-benzothiophene-3-carboxamide] | 4.70 to 6.00 |
| Cc1ncsc1COc1ccc2sc(C)c(C(=O)O)c2c1 [Cpd 049, 2-methyl-5-[(4-methyl-1,3-thiazol-5-yl)methoxy]-1-benzothiophene-3-carboxylic acid] | 4.70 to 6.00 |
| Cc1sc2ccc(OCC3COC3)cc2c1C(=O)NC(C)(CO)C(N)=O (single isomer, unassigned) [Cpd 068 - En1, 3-hydroxy-2-methyl-2-({2-methyl-5-[(oxetan-3-yl)methoxy]-1-benzothiophen-3-yl}formamido)propanamide] | < 4.70 |
| CNC(=O)C1(NC(=O)c2c(C)sc3ccc(OCc4cnc(C)s4)cc23)CCOC1 (single isomer, unassigned) [Cpd 133 - En1, N-methyl-3-{2-methyl-5-[(2-methyl-1,3-thiazol-5-yl)methoxy]-1-benzothiophene-3-amido}oxolane-3-carboxamide] | > 6.00 |
| COc1ncccc1COc1ccc2sc(C)c(C(=O)NC3(CO)CCOCC3)c2c1 [Cpd 144, N-[4-(hydroxymethyl)oxan-4-yl]-5-[(2-methoxypyridin-3-yl)methoxy]-2-methyl-1-benzothiophene-3-carboxamide] | 4.70 to 6.00 |
| Cc1sc2ccc(OCc3cccnc3C(F)(F)F)cc2c1C(=O)NC1(CO)CC1 [Cpd 076, N-[1-(hydroxymethyl)cyclopropyl]-2-methyl-5-{[2-(trifluoromethyl)pyridin-3-yl]methoxy}-1-benzothiophene-3-carboxamide] | > 6.00 |
| Cc1sc2ccc(OCc3ccccn3)cc2c1C(=O)NC(C)(C)C(N)=O [Cpd 064, 2-methyl-2-({2-methyl-5-[(pyridin-2-yl)methoxy]-1-benzothiophen-3-yl}formamido)propanamide] | > 6.00 |
| COc1ncccc1COc1ccc2sc(C)c(C(=O)NC3(CO)CCC3)c2c1 [Cpd 143, N-[1-(hydroxymethyl)cyclobutyl]-5-[(2-methoxypyridin-3-yl)methoxy]-2-methyl-1-benzothiophene-3-carboxamide] | > 6.00 |

Other lines, results leading:

| pIC50 | Compound |
| --- | --- |
| > 6.00 | COc1ncccc1COc1ccc2sc(C)c(C(=O)N[C@@H](C)C(N)=O)c2c1 [Cpd 138, (2S)-2-({5-[(2-methoxypyridin-3-yl)methoxy]-2-methyl-1-benzothiophen-3-yl}formamido)propanamide] |
| > 6.00 | Cc1sc2ccc(OCc3cccnc3C(F)(F)F)cc2c1C(=O)NC1CN(C)CC1(F)F (stereo not shown) [Cpd 121, N-(4,4-difluoro-1-methylpyrrolidin-3-yl)-2-methyl-5-{[2-(trifluoromethyl)pyridin-3-yl]methoxy}-1-benzothiophene-3-carboxamide] |
| > 6.00 | Cc1nc(COc2ccc3sc(C)c(C(=O)NC(C)(CO)C(N)=O)c3c2)cs1 (single isomer, unassigned) [Cpd 015 - En2, 3-hydroxy-2-methyl-2-({2-methyl-5-[(2-methyl-1,3-thiazol-4-yl)methoxy]-1-benzothiophen-3-yl}formamido)propanamide] |
| > 6.00 | Cc1sc2ccc(OCc3ccccn3)cc2c1C(=O)N[C@@H](CO)C(N)=O [Cpd 052, (2S)-3-hydroxy-2-({2-methyl-5-[(pyridin-2-yl)methoxy]-1-benzothiophen-3-yl}formamido)propanamide] |
| > 6.00 | Cc1sc2ccc(OCc3ccccn3)cc2c1C(=O)NC1(CO)COC1 [Cpd 086, N-[3-(hydroxymethyl)oxetan-3-yl]-2-methyl-5-[(pyridin-2-yl)methoxy]-1-benzothiophene-3-carboxamide] |
| > 6.00 | Cc1sc2ccc(OCc3cccnc3C(F)(F)F)cc2c1C(=O)NCC1(N(C)C)CCCC1 [Cpd 113, N-{[1-(dimethylamino)cyclopentyl]methyl}-2-methyl-5-{[2-(trifluoromethyl)pyridin-3-yl]methoxy}-1-benzothiophene-3-carboxamide] |
| > 6.00 | COc1ncccc1COc1ccc2sc(C)c(C(=O)N[C@@H](CO)C(N)=O)c2c1 [Cpd 139, (2S)-3-hydroxy-2-({5-[(2-methoxypyridin-3-yl)methoxy]-2-methyl-1-benzothiophen-3-yl}formamido)propanamide] |
| > 6.00 | Cc1ncsc1COc1ccc2sc(C)c(C(=O)NC3CC(F)(F)C3)c2c1 [Cpd 039, N-(3,3-difluorocyclobutyl)-2-methyl-5-[(4-methyl-1,3-thiazol-5-yl)methoxy]-1-benzothiophene-3-carboxamide] |
| > 6.00 | Cc1ncsc1COc1ccc2sc(C)c(C(=O)NCC3CCC(=O)N3)c2c1 (stereo not shown) [Cpd 046, 2-methyl-5-[(4-methyl-1,3-thiazol-5-yl)methoxy]-N-[(5-oxopyrrolidin-2-yl)methyl]-1-benzothiophene-3-carboxamide] |

Test system: TRPM3
Experiment: not given
Settings: wild type mice vs knock-out TRPM3 mice; cited from earlier work

| Compound | pain |
| --- | --- |
| pregnenolone sulfate | evoked pain in wild type mice but not in knock-out TRPM3 mice |

Test system: not given
Experiment: not given
Settings: rat pain model; cited from earlier work

| Compound | mechanical and cold hyperalgesia |
| --- | --- |
| O=C1C[C@@H](c2ccc(O)cc2)Oc2cc(O)ccc21 [Liquiritigenin] | decrease mechanical and cold hyperalgesia |
